The target of one data set is NK. Description: Affinity to brain targets (panel). The format is binding. To be noted: NK: neurokinin.
A further data set deals with Sigma2 (Homo sapiens, UniProt Q5BJF2). Nature of the data set: Affinity to brain targets (panel). Conditions: Sigma2 (Sigma 2). The format is binding.
A further data set concerns the target M. Description: Affinity to brain targets (panel). The format is binding. Conditions: M: muscarinic.
A further data set addresses MOR (Homo sapiens, UniProt P35372). Nature of the data set: Affinity to brain targets (panel). Format: binding. Conditions: MOR: mu opioid receptor.
For another data set, the target named is AMPA. Description: Affinity to brain targets (panel). The format is binding.
In another data set the target is DOR (Homo sapiens, UniProt P41143). Description: Affinity to brain targets (panel). To be noted: DOR: delta opioid receptors. Format: binding.
Sequence of DOR (P41143 whole entry): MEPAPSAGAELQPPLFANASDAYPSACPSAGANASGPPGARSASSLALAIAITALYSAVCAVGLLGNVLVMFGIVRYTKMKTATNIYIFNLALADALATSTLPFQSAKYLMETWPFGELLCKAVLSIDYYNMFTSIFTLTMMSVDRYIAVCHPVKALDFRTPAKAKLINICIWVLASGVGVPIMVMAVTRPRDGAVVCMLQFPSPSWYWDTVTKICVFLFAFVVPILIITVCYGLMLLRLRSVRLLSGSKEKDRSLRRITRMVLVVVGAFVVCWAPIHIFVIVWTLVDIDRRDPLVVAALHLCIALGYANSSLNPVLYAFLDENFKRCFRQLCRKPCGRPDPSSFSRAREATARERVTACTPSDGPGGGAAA
In a further data set the target is H1 (Homo sapiens, UniProt P35367). Description: Affinity to brain targets (panel). To be noted: H1: histamine. Format: binding.
A further data set deals with HERG (Homo sapiens, UniProt Q12809). Nature of the data set: Affinity to brain targets (panel). To be noted: HERG: human ether-a-go-go. The format is binding.
The target in the next data set is NOP (Homo sapiens, UniProt P41146). Description: Affinity to brain targets (panel). The format is binding.
Sequence of NOP (P41146 whole entry): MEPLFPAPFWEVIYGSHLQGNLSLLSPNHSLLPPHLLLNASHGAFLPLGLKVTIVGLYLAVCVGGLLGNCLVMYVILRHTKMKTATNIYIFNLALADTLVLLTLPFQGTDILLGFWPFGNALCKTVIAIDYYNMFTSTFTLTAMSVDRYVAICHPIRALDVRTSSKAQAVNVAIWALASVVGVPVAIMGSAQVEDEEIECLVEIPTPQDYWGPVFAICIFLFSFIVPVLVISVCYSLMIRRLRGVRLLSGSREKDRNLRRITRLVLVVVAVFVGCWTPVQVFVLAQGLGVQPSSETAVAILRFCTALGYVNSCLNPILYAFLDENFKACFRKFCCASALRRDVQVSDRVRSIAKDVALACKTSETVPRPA
The target of another data set is Sigma1 (Homo sapiens, UniProt Q99720). Description: Affinity to brain targets (panel). The format is binding.
The target of the next data set is T1, Oxytocin (Homo sapiens, UniProt P30559).
T1 sequence (P30559 1-389): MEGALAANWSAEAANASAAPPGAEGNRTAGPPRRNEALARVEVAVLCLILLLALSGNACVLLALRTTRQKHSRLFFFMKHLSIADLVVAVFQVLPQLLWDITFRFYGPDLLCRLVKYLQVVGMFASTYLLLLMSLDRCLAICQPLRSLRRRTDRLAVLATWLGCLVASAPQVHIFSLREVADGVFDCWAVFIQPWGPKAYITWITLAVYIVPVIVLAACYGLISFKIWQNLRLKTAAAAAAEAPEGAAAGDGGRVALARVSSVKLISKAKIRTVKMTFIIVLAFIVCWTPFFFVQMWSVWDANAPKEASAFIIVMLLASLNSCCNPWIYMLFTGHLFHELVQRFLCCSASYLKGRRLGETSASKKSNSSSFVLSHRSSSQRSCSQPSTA
Nature of the data set: Affinity to brain targets (panel). Format: binding.

A further data set addresses SERT (Homo sapiens, UniProt P31645). Nature of the data set: Affinity to brain targets (panel). The format is binding. Conditions: SERT: serotonin transporter.
Another data set concerns the target KOR (Homo sapiens, UniProt P41145). Nature of the data set: Affinity to brain targets (panel). Format: binding. To be noted: KOR: kappa opioid receptors.
The target of a further data set is BZP. Nature of the data set: Affinity to brain targets (panel). The format is binding. To be noted: BZP: benzodiazepine.
For a further data set, the target named is MDR1 (Homo sapiens, UniProt P08183). Description: Affinity to brain targets (panel). The format is binding. To be noted: MDR1: multidrug resistance.
Sequence of MDR1 (P08183 whole entry, species assumed): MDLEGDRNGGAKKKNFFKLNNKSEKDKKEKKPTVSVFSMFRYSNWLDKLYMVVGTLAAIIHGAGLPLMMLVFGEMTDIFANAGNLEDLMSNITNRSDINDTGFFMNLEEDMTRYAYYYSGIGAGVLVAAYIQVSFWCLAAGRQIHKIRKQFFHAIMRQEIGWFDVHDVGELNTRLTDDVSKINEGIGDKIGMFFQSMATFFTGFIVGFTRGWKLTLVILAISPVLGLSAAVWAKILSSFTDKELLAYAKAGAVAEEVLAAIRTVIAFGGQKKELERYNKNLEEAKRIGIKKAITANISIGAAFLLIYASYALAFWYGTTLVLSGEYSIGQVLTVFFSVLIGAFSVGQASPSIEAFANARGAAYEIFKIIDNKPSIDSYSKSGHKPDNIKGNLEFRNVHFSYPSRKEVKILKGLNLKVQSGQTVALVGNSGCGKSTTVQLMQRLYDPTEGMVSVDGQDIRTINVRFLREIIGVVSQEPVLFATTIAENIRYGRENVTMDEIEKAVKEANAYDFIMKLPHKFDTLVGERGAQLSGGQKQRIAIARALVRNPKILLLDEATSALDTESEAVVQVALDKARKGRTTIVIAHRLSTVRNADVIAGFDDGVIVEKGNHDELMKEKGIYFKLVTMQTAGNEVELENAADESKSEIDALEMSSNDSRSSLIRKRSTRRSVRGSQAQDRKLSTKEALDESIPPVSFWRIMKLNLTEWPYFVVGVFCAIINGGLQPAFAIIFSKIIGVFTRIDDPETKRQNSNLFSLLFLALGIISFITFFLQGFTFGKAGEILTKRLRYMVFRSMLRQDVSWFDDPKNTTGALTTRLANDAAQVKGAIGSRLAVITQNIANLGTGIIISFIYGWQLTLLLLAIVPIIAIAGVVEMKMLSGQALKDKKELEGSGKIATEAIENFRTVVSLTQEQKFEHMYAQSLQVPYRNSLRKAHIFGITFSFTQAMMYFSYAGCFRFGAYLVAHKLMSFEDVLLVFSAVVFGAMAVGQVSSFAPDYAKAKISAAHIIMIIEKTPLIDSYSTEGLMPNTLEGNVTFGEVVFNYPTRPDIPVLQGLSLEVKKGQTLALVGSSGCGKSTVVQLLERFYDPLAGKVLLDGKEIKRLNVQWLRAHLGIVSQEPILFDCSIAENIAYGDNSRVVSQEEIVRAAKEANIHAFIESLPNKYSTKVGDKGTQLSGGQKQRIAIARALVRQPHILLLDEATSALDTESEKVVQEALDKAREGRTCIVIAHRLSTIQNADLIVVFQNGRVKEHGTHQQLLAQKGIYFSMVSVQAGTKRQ
For the next data set, the target named is Na+ Channel. Nature of the data set: Affinity to brain targets (panel). Format: binding.
Another data set concerns the target β1-3. Description: Affinity to brain targets (panel). Format: binding.
The target in a further data set is PBR (Homo sapiens, UniProt P30536). Description: Affinity to brain targets (panel). The format is binding.
The target in another data set is mGluR. Description: Affinity to brain targets (panel). Format: binding. Conditions: mGluR (mGluRs): metabotropic glutamate receptors.
Another data set concerns the target Adenosine. Nature of the data set: Affinity to brain targets (panel). Format: binding. To be noted: Adenosine (A).
The target of a further data set is VMAT. Description: Affinity to brain targets (panel). The format is binding. To be noted: VMAT (VMAT 1,2): vesicular monoamine transporter.
The target in the next data set is 5-HT3-7. Nature of the data set: Affinity to brain targets (panel). The format is binding.
The target in another data set is D1-D5. Description: Affinity to brain targets (panel). Format: binding.
The target in a further data set is CB1, CB2. Description: Affinity to brain targets (panel). Format: binding.
The next data set concerns the target DAT (Homo sapiens, UniProt Q01959). Description: Affinity to brain targets (panel). The format is binding. Conditions: DAT: dopamine transporters.
Another data set deals with NT. Nature of the data set: Affinity to brain targets (panel). Format: binding. Conditions: NT: neurotrophin.
Another data set concerns the target EP. Description: Affinity to brain targets (panel). Conditions: EP: prostanoid receptors. Format: binding.
A further data set concerns the target I. Nature of the data set: Affinity to brain targets (panel). Format: binding.
The target in a further data set is H2 (Homo sapiens, UniProt P25021). Nature of the data set: Affinity to brain targets (panel). Format: binding. To be noted: H2: histamine.
Sequence of H2 (P25021 whole entry): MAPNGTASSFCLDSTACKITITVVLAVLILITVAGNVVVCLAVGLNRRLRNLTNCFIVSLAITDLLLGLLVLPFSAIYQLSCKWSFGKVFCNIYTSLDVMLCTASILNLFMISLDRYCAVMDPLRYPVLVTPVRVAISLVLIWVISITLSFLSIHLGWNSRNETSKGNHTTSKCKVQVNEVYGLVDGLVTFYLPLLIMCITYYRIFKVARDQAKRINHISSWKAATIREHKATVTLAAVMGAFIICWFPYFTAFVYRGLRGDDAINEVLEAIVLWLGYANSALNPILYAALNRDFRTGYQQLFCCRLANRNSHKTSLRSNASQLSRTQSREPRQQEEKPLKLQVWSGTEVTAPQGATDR
The target of the next data set is 5-HT1A-1E. Nature of the data set: Affinity to brain targets (panel). The format is binding.
The target of the next data set is GABA. Description: Affinity to brain targets (panel). The format is binding.
The target in another data set is H3, H4. Description: Affinity to brain targets (panel). Format: binding. To be noted: H3, H4: histamine.
For another data set, the target named is Ca++ channel. Description: Affinity to brain targets (panel). Format: binding.
The target in a further data set is Smoothened (Homo sapiens, UniProt Q99835). Nature of the data set: Affinity to brain targets (panel). Format: binding.
Sequence of Smoothened (Q99835 28-787): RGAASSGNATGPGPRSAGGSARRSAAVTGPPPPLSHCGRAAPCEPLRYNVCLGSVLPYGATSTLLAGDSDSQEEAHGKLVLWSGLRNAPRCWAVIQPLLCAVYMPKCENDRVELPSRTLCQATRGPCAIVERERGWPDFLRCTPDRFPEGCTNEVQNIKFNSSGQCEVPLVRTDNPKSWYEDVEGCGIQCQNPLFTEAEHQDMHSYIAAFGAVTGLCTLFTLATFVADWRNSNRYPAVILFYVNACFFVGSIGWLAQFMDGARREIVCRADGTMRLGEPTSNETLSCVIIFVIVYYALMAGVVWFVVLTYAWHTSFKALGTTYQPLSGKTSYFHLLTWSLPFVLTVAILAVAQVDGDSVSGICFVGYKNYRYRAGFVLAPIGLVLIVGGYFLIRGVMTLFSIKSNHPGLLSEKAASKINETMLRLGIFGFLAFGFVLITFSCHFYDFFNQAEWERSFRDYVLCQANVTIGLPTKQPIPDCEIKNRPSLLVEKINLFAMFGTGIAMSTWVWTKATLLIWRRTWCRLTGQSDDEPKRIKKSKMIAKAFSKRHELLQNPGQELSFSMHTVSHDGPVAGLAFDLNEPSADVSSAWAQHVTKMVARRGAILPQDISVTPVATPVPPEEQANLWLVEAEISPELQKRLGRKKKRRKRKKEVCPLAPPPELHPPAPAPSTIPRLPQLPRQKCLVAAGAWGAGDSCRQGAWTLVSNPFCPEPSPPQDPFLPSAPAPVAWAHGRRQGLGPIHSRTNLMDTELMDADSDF
For a further data set, the target named is PKC. Nature of the data set: Affinity to brain targets (panel). Format: binding. Conditions: PKC: Protein kinase C.
A further data set addresses NET (Homo sapiens, UniProt P23975). Nature of the data set: Affinity to brain targets (panel). To be noted: NET: norepinephrine transporter. The format is binding.
In the next data set the target is α1A-1C. Nature of the data set: Affinity to brain targets (panel). Format: binding.
In a further data set the target is NMDA. Nature of the data set: Affinity to brain targets (panel). The format is binding.
The next data set has as its target α2A-2C. Nature of the data set: Affinity to brain targets (panel). The format is binding.
The next data set addresses 5-HT2A-2C. Description: Affinity to brain targets (panel). The format is binding.
The next data set concerns the target KA. Description: Affinity to brain targets (panel). Format: binding. To be noted: KA (KAR): Kainate.
For data set [1] the following is noted: references 12-14; cited from earlier work.
A further data set concerns tumor xenografts. Conditions: references 12-14; cited from earlier work.
A further data set relates to panel of kinases. To be noted: cited from earlier work.
The subject of another data set is brain MTs. Nature of the data set: MicroPET in mice brain. The format is in vivo. To be noted: for BBB penetration and brain distribution: microPET, mice. On the procedure: Blocking with unlabeled MPC-6827 and HD-800 (5 mg/kg/i.v) 20 minute prior to radioligand administration indicates specific binding of radiotracer to brain MTs. […] Time activity curves (TACs) further confirm the washout of [^11C]HD-800 in mice brain and excellent specific binding with unlabeled HD-800 and MPC-6827 as blocking agents (FIG. 9).^23-24
The distribution pattern of [^18F]FEMPC-6827 in the mice brain is similar to that of [^11C]MPC-6827 and [^11C]HD-800.

Sequence of NET (P23975 whole entry): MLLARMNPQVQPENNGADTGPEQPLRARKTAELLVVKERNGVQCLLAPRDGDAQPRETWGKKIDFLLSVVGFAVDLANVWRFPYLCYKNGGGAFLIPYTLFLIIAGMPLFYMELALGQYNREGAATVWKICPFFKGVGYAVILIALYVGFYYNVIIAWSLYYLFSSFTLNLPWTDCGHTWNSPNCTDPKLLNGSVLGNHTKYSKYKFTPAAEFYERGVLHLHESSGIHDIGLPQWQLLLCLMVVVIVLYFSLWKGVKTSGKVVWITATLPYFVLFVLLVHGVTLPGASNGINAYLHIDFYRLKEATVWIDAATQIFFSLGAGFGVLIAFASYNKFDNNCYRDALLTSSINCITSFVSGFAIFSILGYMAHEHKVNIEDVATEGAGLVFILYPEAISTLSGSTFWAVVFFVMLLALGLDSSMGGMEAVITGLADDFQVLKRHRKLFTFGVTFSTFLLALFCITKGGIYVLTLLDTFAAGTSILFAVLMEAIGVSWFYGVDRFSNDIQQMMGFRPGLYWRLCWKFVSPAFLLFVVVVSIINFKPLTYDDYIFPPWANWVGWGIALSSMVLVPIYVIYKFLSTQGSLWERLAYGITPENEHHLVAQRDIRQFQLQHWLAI
Sequence of MOR (P35372 whole entry): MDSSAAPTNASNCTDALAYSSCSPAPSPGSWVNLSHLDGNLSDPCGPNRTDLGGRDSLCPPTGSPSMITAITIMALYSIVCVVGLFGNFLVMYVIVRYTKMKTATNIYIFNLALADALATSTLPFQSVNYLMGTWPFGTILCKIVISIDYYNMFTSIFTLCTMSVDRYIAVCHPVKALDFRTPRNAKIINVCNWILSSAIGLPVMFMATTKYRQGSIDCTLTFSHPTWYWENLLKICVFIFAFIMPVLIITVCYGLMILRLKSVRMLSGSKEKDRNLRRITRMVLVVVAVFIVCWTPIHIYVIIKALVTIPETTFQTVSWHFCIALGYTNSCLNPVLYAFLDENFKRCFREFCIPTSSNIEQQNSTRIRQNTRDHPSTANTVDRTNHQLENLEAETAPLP
Sequence of SERT (P31645 whole entry, species assumed): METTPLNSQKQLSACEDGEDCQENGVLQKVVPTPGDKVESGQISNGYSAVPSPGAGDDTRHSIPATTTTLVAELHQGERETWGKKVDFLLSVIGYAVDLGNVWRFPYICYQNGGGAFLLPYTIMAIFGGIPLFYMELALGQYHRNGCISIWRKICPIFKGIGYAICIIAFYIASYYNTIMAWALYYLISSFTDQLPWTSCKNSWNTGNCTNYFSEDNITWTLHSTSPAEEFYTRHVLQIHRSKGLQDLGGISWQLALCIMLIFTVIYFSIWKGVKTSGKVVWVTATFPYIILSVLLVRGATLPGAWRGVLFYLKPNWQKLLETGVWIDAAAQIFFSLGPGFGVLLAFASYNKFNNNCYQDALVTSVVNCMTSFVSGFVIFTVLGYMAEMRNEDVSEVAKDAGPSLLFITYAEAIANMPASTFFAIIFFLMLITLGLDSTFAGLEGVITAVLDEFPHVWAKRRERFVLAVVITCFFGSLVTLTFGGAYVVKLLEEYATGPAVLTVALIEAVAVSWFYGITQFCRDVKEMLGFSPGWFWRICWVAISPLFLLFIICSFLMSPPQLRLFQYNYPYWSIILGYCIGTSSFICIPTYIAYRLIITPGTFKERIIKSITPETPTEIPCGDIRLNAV
Sequence of Sigma2 (Q5BJF2 whole entry): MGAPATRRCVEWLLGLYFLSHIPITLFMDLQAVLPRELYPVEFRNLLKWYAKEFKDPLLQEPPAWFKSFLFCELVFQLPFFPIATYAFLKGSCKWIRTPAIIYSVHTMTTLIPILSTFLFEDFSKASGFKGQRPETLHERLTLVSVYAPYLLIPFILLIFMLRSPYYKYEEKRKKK

As to `Cc1nc(N(C)c2ccc(OCCF)cc2)c2c(C)coc2n1` [FE-HD-800], the Ki – broadly, the dissociation constant of the complex between target and ligand, obtained from inhibition or displacement – on NK is more than 10 µM; at Sigma2, 2.46 µM; at M, more than 10 µM; on MOR it was more than 10 µM; on AMPA, more than 10 µM; on DOR, more than 10 µM. Moreover, the Ki was 3.37 µM at H1; more than 10 µM at HERG; more than 10 µM on NOP; 0.832 µM at Sigma1; more than 10 µM on Oxytocin; more than 10 µM on SERT. Further, the Ki at KOR, on BZP, on MDR1, on Na+ Channel, on β1-3 and on PBR was more than 10 µM each time. Also, the inhibition constant Ki is more than 10 µM on mGluR; more than 10 µM on Adenosine; more than 10 µM at VMAT; more than 10 µM on 5-HT3-7; more than 10 µM on D1-D5; more than 10 µM on CB1, CB2. Further, the inhibitory constant (Ki) on DAT, on NT, at EP, at I, at H2 and at 5-HT1A-1E was more than 10 µM each time. Moreover, the Ki is more than 10 µM at GABA; more than 10 µM at H3, H4; more than 10 µM at Ca++ channel; more than 10 µM at Smoothened; more than 10 µM at PKC; more than 10 µM at NET. For the same molecule, the inhibition constant (Ki) on α1A-1C, on NMDA, at α2A-2C, on 5-HT2A-2C and at KA was more than 10 µM in each case.

Turning to `Cc1nc(N(C)c2ccc(OCCF)cc2)c2ccccc2n1` [FEMPC-6827], the Ki on NK was more than 10 µM; at Sigma2, 2.46 µM; at M, more than 10 µM; on MOR, more than 10 µM; on AMPA, more than 10 µM; on DOR, more than 10 µM. Besides, the Ki is 0.305 µM on H1; more than 10 µM on HERG; more than 10 µM at NOP; 0.051 µM on Sigma1; more than 10 µM at Oxytocin; more than 10 µM at SERT. Besides, the inhibition constant Ki at KOR was more than 10 µM; on BZP, more than 10 µM; on MDR1 it was more than 10 µM; at Na+ Channel, more than 10 µM; at β1-3 it was more than 10 µM; on PBR it was 1.59 µM. Also, the Ki is more than 10 µM at mGluR; more than 10 µM on Adenosine; more than 10 µM at VMAT; more than 10 µM on 5-HT3-7; more than 10 µM on D1-D5; more than 10 µM at CB1, CB2. For the same molecule, the Ki at DAT is more than 10 µM; at NT, more than 10 µM; at EP, more than 10 µM; at I, more than 10 µM; on H2 it was 2.31 µM; on 5-HT1A-1E it was more than 10 µM. For the same molecule, the inhibition constant Ki at GABA is more than 10 µM; on H3, H4, more than 10 µM; at Ca++ channel, more than 10 µM; on Smoothened, more than 10 µM; at PKC, more than 10 µM; at NET, more than 10 µM. Further, the inhibition constant Ki at α1A-1C, at NMDA, on α2A-2C, at 5-HT2A-2C and at KA was more than 10 µM in each case.

On to `COc1ccc2c(c1)NC(=O)CN2c1nc(C)nc2ccccc12` [WX-132-18B, 7-Methoxy-4-(2-methylquinazolin-4-yl)-3,4-dihydroquinoxalin-2(1H)-one], for which the BBB penetration entry in data set [1] is on record as “BBB penetrant”. Further, the “tumor growth inhibition (TGI) compared with paclitaxel” value in the data set with tumor xenografts is “higher tumor growth inhibition (TGI) than paclitaxel”. In addition, the “binding to a panel / variety of kinases” value with panel of kinases is reported as “selective”.

As to `Cc1coc2ncnc(N(C)c3ccc(O[11CH3])cc3)c12` [[^11C]HD-800], the “BBB penetration and brain distribution” value in the data set on brain MTs is “penetrated the BBB followed by a homogeneous distribution in the mouse brain”. For the same molecule, in the data set on brain MTs (unlabeled MPC-6827 and HD-800 (5 mg/kg/i.v) 20 minute prior to radioligand), the “blocking of brain activity” value is “significant decreasing activity”.

For `Cc1nc(N(C)c2ccc(OCC[18F])cc2)c2ccccc2n1` [[^18F]FEMPC-6827], the “BBB penetration and brain distribution” value with brain MTs is “blood brain barrier penetration and accumulation in the brain”.

Values taken from patent publication US12054463B2, “Radiolabeled microtubule imaging compounds and uses thereof” (The Trustees of Columbia University in the City of New York, priority 2017, dated 2024).
